The target in the first experiment is T1, MAGL (Homo sapiens, UniProt Q99685).
T1 sequence (Q99685 1-303): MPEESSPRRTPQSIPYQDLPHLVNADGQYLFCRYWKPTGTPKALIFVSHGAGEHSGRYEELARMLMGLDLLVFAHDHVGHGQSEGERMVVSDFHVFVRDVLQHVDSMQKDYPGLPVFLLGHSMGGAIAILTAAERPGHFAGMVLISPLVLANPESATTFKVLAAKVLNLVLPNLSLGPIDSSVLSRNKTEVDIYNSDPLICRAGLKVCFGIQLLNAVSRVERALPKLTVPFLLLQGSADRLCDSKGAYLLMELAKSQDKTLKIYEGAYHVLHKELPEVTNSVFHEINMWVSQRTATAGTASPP
Description: In vitro competitive activity-based protein profiling, MAGL, human. As to conditions: read-out: MAGL % inh. 1 μM (human).
As to `C[C@@H]1CN(Cc2cc(F)cc(Oc3ccc(Cl)cc3)c2)CCN1C(=O)n1ccc(C(=O)O)n1` [Example 348, (R)-1-(4-(3-(4-chlorophenoxy)-5-fluorobenzyl)-2-methylpiperazine-1-carbonyl)-1H-pyrazole-3-carboxylic acid], the inhibition at 1 µM was > 75%.

Still in this experiment, the particulars now being: read-out: MAGL % inh. (human) at 10 uM.
Regarding `O=C(O)c1ccn(C(=O)N2C[C@H]3C[C@H](OCc4cccc(-c5cscn5)c4Cl)C[C@H]3C2)n1` [Example 447, 1-(trans-5-((2-chloro-3-(thiazol-4-yl)benzyl)oxy)octa-hydrocyclopenta[c]pyrrole-2-carbonyl)-1H-pyrazole-3-carboxylic acid], the inhibition at 10 µM was > 75%.

In the case of `O=C(O)c1ccn(C(=O)N2C[C@H]3C[C@H](NCc4cccc(-c5ccccc5)c4)C[C@H]3C2)n1` [Example 273, 1-(trans-5-(([1,1′-biphenyl]-3-ylmethyl)amino)octahydrocyclopenta [c]pyrrole-2-carbonyl)-1H-pyrazole-3-carboxylic acid], the inhibition at 10 µM was > 75%.

A further experiment concerns the target T2, MAGL (Mus musculus, UniProt O35678).
T2 sequence (O35678 1-303): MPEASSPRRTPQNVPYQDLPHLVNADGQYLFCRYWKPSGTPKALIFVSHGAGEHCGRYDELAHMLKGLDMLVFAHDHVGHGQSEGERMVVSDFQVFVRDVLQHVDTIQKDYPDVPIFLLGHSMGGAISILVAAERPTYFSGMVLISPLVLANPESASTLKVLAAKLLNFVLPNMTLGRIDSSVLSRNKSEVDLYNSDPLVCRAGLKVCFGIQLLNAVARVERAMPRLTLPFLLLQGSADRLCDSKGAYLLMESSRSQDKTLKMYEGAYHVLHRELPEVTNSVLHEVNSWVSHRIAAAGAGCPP
Description: In vitro competitive activity-based protein profiling, MAGL, mouse. Particulars: read-out: MAGL % inh. 1 μM (mouse).
In the case of `NC(=O)c1ccn(C(=O)N2CCC3(CCN(Cc4ccc(Cl)cc4)C3)C2)n1` (stereo not shown) [Example 421, 1-(7-(4-chlorobenzyl)-2,7-diazaspiro[4.4]non-ane-2-carbonyl)-1H-pyrazole-3-carboxamide], the inhibition at 1 µM was > 75%.

`C[C@@H]1CN(Cc2cc(F)cc(Oc3ccc(Cl)cc3)c2)CCN1C(=O)n1ccc(C(=O)O)n1` [Example 348, (R)-1-(4-(3-(4-chlorophenoxy)-5-fluorobenzyl)-2-methylpiperazine-1-carbonyl)-1H-pyrazole-3-carboxylic acid]: the inhibition at 1 µM was > 75%.

On to `CNC(=O)c1ccn(C(=O)N2CCN(Cc3ccc(Cl)cc3)CC2)n1` [Example 420, 1-(4-(4-chlorobenzyl)piper-azine-1-carbonyl)-N-methyl-1H-pyrazole-3-carboxamide], for which the inhibition at 1 µM was > 75%.

Turning to `CC(C)COc1cccc(O[C@H]2C[C@@H]3CN(C(=O)n4ccc(C(=O)O)n4)C[C@@H]3C2)c1Cl` [Example 448, 1-(trans-5-(2-chloro-3-isobutoxyphenoxy)octahydrocyclopenta [c]pyrrole-2-carbonyl)-1H-pyrazole-3-carboxylic acid], the inhibition at 1 µM was > 75%.

In the case of `CNC(=O)c1ccn(C(=O)N2CC3CN(Cc4cc(Cl)cc(C(F)(F)F)c4)CC3C2)n1` (stereo not shown) [Example 437, 1-(5-(3-chloro-5-(trifluoromethyl)benzyl)octahydro-pyrrolo[3,4-c]pyrrole-2-carbonyl)-N-methyl-1H-pyrazole-3-carboxamide], the inhibition at 1 µM was > 75%.

On to `CNC(=O)c1ccn(C(=O)N2CC3CN(Cc4ccc(C(F)(F)F)cc4)CC3C2)n1` (stereo not shown) [Example 425, N-methyl-1-(5-(4-(trifluoromethyl)benzyl)octahydro-pyrrolo[3,4-c]pyrrole-2-carbonyl)-1H-pyrazole-3-carboxamide], for which the inhibition at 1 µM was > 75%.

For the compound `CNC(=O)c1ccn(C(=O)N2C[C@H]3C[C@@H](N(C)Cc4ccccc4C(F)(F)F)C[C@H]3C2)n1` [Example 434, N-methyl-1-(cis-5-(methyl(2-(trifluoromethyl)benzyl)amino)octa-hydrocyclopenta[c]pyrrole-2-carbonyl)-1H-pyrazole-3-carboxamide], the inhibition at 1 µM is > 75%.

In the case of `O=C(O)c1ccn(C(=O)N2CCC3(CCCN3Cc3cc(Cl)cc(N4CCCC4)c3)CC2)n1` [Example 344, 1-(1-(3-chloro-5-(pyrrolidin-1-yl)benzyl)-1,8-diazaspiro[4.5]decane-8-carbonyl)-1H-pyrazole-3-carboxylic acid], the inhibition at 1 µM is > 75%.

For the compound `CNC(=O)c1ccn(C(=O)N2CCC3(CCN(Cc4cc(Cl)cc(C(F)(F)F)c4)C3)C2)n1` (stereo not shown) [Example 435, 1-(7-(3-chloro-5-(trifluoromethyl)benzyl)-2,7-diazaspiro[4.4]non-ane-2-carbonyl)-N-methyl-1H-pyrazole-3-carboxamide], the inhibition at 1 µM was > 75%.

As for `Cc1cc(CN2CCCC23CCN(C(=O)n2ccc(C(=O)O)n2)CC3)cc(C(F)(F)F)c1` [Example 303, 1-(1-(3-methyl-5-(trifluoromethyl)benzyl)-1,8-diazaspiro[4.5]decane-8-carbonyl)-1H-pyrazole-3-carboxylic acid], the inhibition at 1 µM was > 75%.

Take `COc1cccc(O[C@H]2C[C@@H]3CN(C(=O)n4ccc(C(=O)O)n4)C[C@@H]3C2)c1Cl` [Example 445, 1-(trans-5-(2-chloro-3-methoxyphenoxy)octahydrocyclopenta [c]pyrrole-2-carbonyl)-1H-pyrazole-3-carboxylic acid]: the inhibition at 1 µM is > 75%.

For `CNC(=O)c1ccn(C(=O)N2CC3CN(Cc4cc(Cl)ccc4Cl)CC3C2)n1` (stereo not shown) [Example 430, 1-(5-(2,5-dichlorobenzyl)octa-hydropyrrolo[3,4-c]pyrrole-2-carbonyl)-N-methyl-1H-pyrazole-3-carboxamide], the inhibition at 1 µM is > 75%.

With `CNC(=O)c1ccn(C(=O)N2CC3CN(Cc4cccc(C(F)(F)F)c4)CC3C2)n1` (stereo not shown) [Example 432, N-methyl-1-(5-(3-(trifluoromethyl)benzyl)octahydro-pyrrolo[3,4-c]pyrrole-2-carbonyl)-1H-pyrazole-3-carboxamide], the inhibition at 1 µM was > 75%.

Consider `O=C(O)c1ccn(C(=O)N2C[C@H]3C[C@H](Oc4cccc(-c5cscn5)c4Cl)C[C@H]3C2)n1` [Example 446, 1-(trans-5-(2-chloro-3-(thiazol-4-yl)phenoxy)octa-hydrocyclopenta[c]pyrrole-2-carbonyl)-1H-pyrazole-3-carboxylic acid], for which the inhibition at 1 µM is > 75%.

On to `NC(=O)c1ccn(C(=O)N2CCN(Cc3cccc(C4(O)CCOCC4)c3)CC2)n1` [Example 237, 1-(4-(3-(4-hydroxytetrahydro-2H-pyran-4-yl)benzyl)piperazine-1-carbonyl)-1H-pyrazole-3-carboxamide], for which the inhibition at 1 µM was > 75%.

`Cc1cn(C(=O)N2CCN(Cc3cccc(Oc4ccc(Cl)cc4)c3)C[C@@H]2C)nc1C(=O)O` [Example 442, (S)-1-(4-(3-(4-chlorophenoxy)benzyl)-2-methylpiperazine-1-carbonyl)-4-methyl-1H-pyrazole-3-carboxylic acid]: the inhibition at 1 µM was > 75%.

On to `CNC(=O)c1ccn(C(=O)N2C[C@H]3C[C@@H](N(C)Cc4ccc(C(F)(F)F)cc4)C[C@H]3C2)n1` [Example 439, N-methyl-1-(cis-5-(methyl(4-(trifluoromethyl)benzyl)amino)octa-hydrocyclopenta[c]pyrrole-2-carbonyl)-1H-pyrazole-3-carboxamide], for which the inhibition at 1 µM is > 75%.

Consider `CNC(=O)c1ccn(C(=O)N2CCC3(CCN(Cc4cc(Cl)ccc4Cl)C3)C2)n1` (stereo not shown) [Example 428, 1-(7-(2,5-dichlorobenzyl)-2,7-diazaspiro[4.4]non-ane-2-carbonyl)-N-methyl-1H-pyrazole-3-carboxamide], for which the inhibition at 1 µM is > 75%.

For the compound `NC(=O)c1ccn(C(=O)N2CCC3(CCN(Cc4cccc(C(F)(F)F)c4)C3)C2)n1` (stereo not shown) [Example 429, 1-(7-(3-(trifluoromethyl)benzyl)-2,7-diazaspiro[4.4]non-ane-2-carbonyl)-1H-pyrazole-3-carboxamide], the inhibition at 1 µM is > 75%.

On to `CNC(=O)c1ccn(C(=O)N2CCN(Cc3cccc(Oc4ccccc4)c3)CC2)n1` [Example 423, N-methyl-1-(4-(3-phenoxybenzyl)piperazine-1-carbonyl)-1H-pyrazole-3-carboxamide], for which the inhibition at 1 µM is > 75%.

As for `O=C(O)c1nn(C(=O)N2CCN(Cc3ccc(C(F)(F)F)cc3N3CCCC3)CC2)cc1Cl` [Example 443, 4-chloro-1-(4-(2-(pyrrolidin-1-yl)-4-(trifluoromethyl)benzyl)piperazine-1-carbonyl)-1H-pyrazole-3-carboxylic acid], the inhibition at 1 µM is > 75%.

`NC(=O)c1ccn(C(=O)N2CCC3(CCN(Cc4ccc(N5CCOCC5)cc4C(F)(F)F)C3)C2)n1` (stereo not shown) [Example 436, 1-(7-(4-morpholino-2-(trifluoromethyl)benzyl)-2,7-diazaspiro[4.4]non-ane-2-carbonyl)-1H-pyrazole-3-carboxamide]: the inhibition at 1 µM is > 75%.

`CNC(=O)c1ccn(C(=O)N2CC3CN(Cc4ccc(N5CCOCC5)cc4C(F)(F)F)CC3C2)n1` (stereo not shown) [Example 440, N-methyl-1-(5-(4-morpholino-2-(trifluoromethyl)benzyl)octahydro-pyrrolo[3,4-c]pyrrole-2-carbonyl)-1H-pyrazole-3-carboxamide]: the inhibition at 1 µM was > 75%.

For the compound `C[C@H]1CC(N(C)Cc2ccc(C(F)(F)F)cc2N2CCCC2)CCN1C(=O)n1cc(Cl)c(C(=O)O)n1` (stereo partly drawn) [Example 33, 4-Chloro-1-((2S)-2-methyl-4-(methyl(2-(pyrrolidin-1-yl)-4-(trifluoromethyl)benzyl)amino)piperidine-1-carbonyl)-1H-pyrazole-3-carboxylic Acid], the inhibition at 1 µM lay in the range of 50 to 75%.

`O=C(O)c1nn(C(=O)N2CCN(Cc3cccc(C(F)(F)F)c3N3CCOCC3)CC2)cc1Cl` [Example 449, 4-chloro-1-(4-(2-morpholino-3-(trifluoromethyl)benzyl)piperazine-1-carbonyl)-1H-pyrazole-3-carboxylic acid]: the inhibition at 1 µM was > 75%.

These data come from patent US10266497B2 (ABIDE THERAPEUTICS, INC., priority 2017, dated 2019).
